Results as given in US10125101B2, “Indanylaminopyridylcyclopropanecarboxylic acids, pharmaceutical compositions and uses thereof” (Boehringer Ingelheim International GmbH, priority 2016, dated 2018).
In brackets after ≈: the same amount, converted by molar mass. Where two headings read alike, the source gives them in different places.

Experiments:
[1] = target: cytochrome P450 2C8-isoenzyme (Homo sapiens (Human), UniProt P10632); test: Inhibition of CYP-2C8 (amodiaquine deethylation, human liver microsomes); assay type: in vitro ADME; details: amodiaquine 1 μM, 37° C.
Method: (§1) All assays are carried out on a robotic system in 96 well plates. The final incubation volume contains TRIS buffer (0.1 M), MgCl2 (5 mM), human liver microsomes (0.05 mg/mL), amodiaquine (1 μM) and the test compound at five different concentrations or no compound (high control) in duplicate (e.g. highest concentration 10-50 μM with subsequent serial 1:4 dilutions). Following a short preincubation period, reactions are started with the cofactor (NADPH, 1 mM) and stopped by cooling the incubation down to 8° C. and subsequently by addition of one volume of acetonitrile. An internal standard solution—the stable isotope d5-desethylamodiaquine—is added after quenching of incubations. Peak area analyte (=metabolite formed) and internal standard is determined by LC-MS/MS. The resulting peak area ratio analyte to internal standard in these incubations is compared to a control activity containing no test compound. Within each of the assay runs, the IC50 of a positive control inhibitor (Montelukast) is determined.

[2] = target: human GPR40 receptor (Homo sapiens (Human), UniProt O14842); test: IP1 accumulation measurements using the IPOne assay system; assay type: cell-based
Method: IP1 accumulation measurements using the IPOne assay system—1321N1 cells stably expressing human GPR40 receptor (Euroscreen, Belgium) are seeded 24 h before the assay in white 384-well plates in culture medium containing 10% FCS, 1% Na-Pyruvate and 400 μg/mL G418. IP1 is assayed according to the manufacturer's description (Cisbio Bioassays, France). In brief, the assay is started by substitution of the culture medium by stimulation buffer (Hepes 10 mM, CaCl2 1 mM, MgCl2 0.5 mM, KCl 4.2 mM, NaCl 146 mM, glucose 5.5 mM and LiCl 50 mM, pH 7.4). Cells are stimulated for 1 h at 37° C., 5% CO2 by addition of the compounds that are diluted in stimulation buffer containing LiCl. Assays are stopped by adding HTRF-conjugates (IP1-d2 and Anti-IP1 cryptate Tb) and lysis buffer, provided by the manufacturer. After an incubation time of 1 h at room temperature plates are measured using an EnVision™, Perkin Elmer. The obtained fluorescence ratios at 665/615 […] are then used to calculate the pEC50 values using Assay Explorer 3.3 Software (Accelrys, Inc.) by interpolation using an IP1 reference curve and subsequent sigmoidal curve fitting allowing for a variable hill slope.

[3] = target: cytochrome P450 2C9-isoenzyme (Homo sapiens (Human), UniProt P11712); test: Inhibition of CYP-2C9 (diclofenac hydroxylation, human liver microsomes); assay type: in vitro ADME; details: diclofenac 10 μM, 37° C.
Method: as §1, with “(0.1” for “(0.05”, “diclofenac (10” for “amodiaquine (1”, “(e.g.,” for “(e.g.”, “^13C6-hydroxydiclofenac—is” for “d5-desethylamodiaquine—is”, “(sulfaphenazole)” for “(Montelukast)”

[4] = Aqueous solubility; assay type: physicochemical; details: buffer pH 2.2, 24 h shaking, 2.5% DMSO; for solubility at 24 h: aqueous buffer, kinetic from dmso stock
Method: Starting from a 10 mM DMSO stock solution aliquots are diluted with acetonitrile/water (1/1) or buffer, respectively. After 24 h of shaking, the solutions are filtrated and analyzed by LC-UV. The amount dissolved in buffer is compared to the amount in the acetonitrile solution.

[5] = 1321N1 cells stably expressing human GPR40, 1 h stimulation, read-out: EC50
[6] = head-to-head compilation, given as IC50, values equal the EC50 of Table 2, read-out: GPR40: IC50

Sequence of cytochrome P450 2C8-isoenzyme (P10632 whole entry): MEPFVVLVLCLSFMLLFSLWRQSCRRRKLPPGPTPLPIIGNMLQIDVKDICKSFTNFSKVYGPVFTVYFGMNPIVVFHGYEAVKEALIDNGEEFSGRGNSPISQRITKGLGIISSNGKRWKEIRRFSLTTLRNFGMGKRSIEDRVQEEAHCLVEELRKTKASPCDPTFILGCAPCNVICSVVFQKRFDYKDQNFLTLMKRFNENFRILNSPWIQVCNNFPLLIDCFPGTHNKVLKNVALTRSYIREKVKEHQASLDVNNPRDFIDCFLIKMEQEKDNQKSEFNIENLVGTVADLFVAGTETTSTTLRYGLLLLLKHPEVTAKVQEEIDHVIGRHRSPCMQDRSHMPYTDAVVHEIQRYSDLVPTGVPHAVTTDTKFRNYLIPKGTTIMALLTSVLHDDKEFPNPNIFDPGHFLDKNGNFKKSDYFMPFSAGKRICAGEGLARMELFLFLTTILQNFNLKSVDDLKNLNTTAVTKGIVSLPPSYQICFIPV
Sequence of cytochrome P450 2C9-isoenzyme (P11712 whole entry): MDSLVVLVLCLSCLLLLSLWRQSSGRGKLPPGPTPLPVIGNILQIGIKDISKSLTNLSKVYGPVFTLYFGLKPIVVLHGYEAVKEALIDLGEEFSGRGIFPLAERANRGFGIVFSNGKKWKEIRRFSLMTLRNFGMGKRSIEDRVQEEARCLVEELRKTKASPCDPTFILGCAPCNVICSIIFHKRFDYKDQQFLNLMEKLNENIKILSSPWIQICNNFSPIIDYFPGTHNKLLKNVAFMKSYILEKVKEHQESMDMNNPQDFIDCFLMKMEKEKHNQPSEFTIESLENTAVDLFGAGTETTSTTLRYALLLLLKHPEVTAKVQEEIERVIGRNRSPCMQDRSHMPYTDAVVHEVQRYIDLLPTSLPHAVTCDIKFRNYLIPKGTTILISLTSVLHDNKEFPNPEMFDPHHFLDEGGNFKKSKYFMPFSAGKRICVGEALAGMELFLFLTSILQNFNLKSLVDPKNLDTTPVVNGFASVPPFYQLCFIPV
Sequence of human GPR40 receptor (O14842 whole entry): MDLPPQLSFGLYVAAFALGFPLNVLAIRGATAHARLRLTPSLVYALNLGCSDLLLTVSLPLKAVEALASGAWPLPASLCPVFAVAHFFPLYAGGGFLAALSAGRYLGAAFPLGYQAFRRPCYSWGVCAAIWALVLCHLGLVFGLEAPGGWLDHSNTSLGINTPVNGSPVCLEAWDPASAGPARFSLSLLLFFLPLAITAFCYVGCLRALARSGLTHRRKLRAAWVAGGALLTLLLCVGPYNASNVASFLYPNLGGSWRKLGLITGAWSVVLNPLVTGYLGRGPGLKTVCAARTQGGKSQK

IC50 [1] [µM]	EC50 [2, 5] [µM]	IC50 [3] [µM]	Solubility at pH value 2.2 [4] [μg/mL]	EC50 [2, 6] [µM]	solubility at 24 h [4] [µg/mL]	Structure (SMILES)
> 50	0.924	> 50	96			Cc1cc(OCC(=O)O)cc(C)c1-c1ccc(F)c2c1CC[C@H]2Nc1ccc([C@H]2C[C@@H]2C(=O)O)nc1 [Example 16]
> 50	0.148	> 50	112			CNC(=O)c1cc(C)c(-c2ccc(F)c3c2CC[C@H]3Nc2ccc([C@H]3C[C@@H]3C(=O)O)nc2)c(C)c1 [Example 27]
8	0.005	19	106			COc1cc(-c2cc(C)c(-c3ccc(F)c4c3CC[C@H]4Nc3ccc([C@H]4C[C@@H]4C(=O)O)nc3)c(C)c2)ccn1 [Example 22]
40	0.012	> 50	103			Cc1cc(O[C@H]2CCOC2)cc(C)c1-c1ccc(F)c2c1CC[C@H]2Nc1ccc([C@H]2C[C@@H]2C(=O)O)nc1 (mixture of isomers) [Example 33]
34	0.002	> 50	113			Cc1cc(-c2nnn(CC(C)(C)O)n2)cc(C)c1-c1ccc(F)c2c1CC[C@H]2Nc1ccc([C@H]2C[C@@H]2C(=O)O)nc1 [Example 20]
> 50	0.148	> 50	118			Cc1cc(C(=O)N(C)C)cc(C)c1-c1ccc(F)c2c1CC[C@H]2Nc1ccc([C@H]2C[C@@H]2C(=O)O)nc1 [Example 39]
12		17		0.008		Cc1cc(OCCCS(C)(=O)=O)cc(C)c1-c1ccc(F)c2c1CC[C@H]2Oc1ccc([C@H]2C[C@@H]2C(=O)O)nc1 [Example 11 in WO 2013/178575, reference compound]
49	0.344	40	110			N#CC1(c2ccccc2-c2ccc(F)c3c2CC[C@H]3Nc2ccc([C@H]3C[C@@H]3C(=O)O)nc2)CC1 (mixture of isomers) [Example 25]
40	0.025	> 50	105			Cc1cc(CO)cc(C)c1-c1ccc(F)c2c1CC[C@H]2Nc1ccc([C@H]2C[C@@H]2C(=O)O)nc1 [Example 13]
15	0.002	36	91			Cc1cnc(-c2cc(C)c(-c3ccc(F)c4c3CC[C@H]4Nc3ccc([C@H]4C[C@@H]4C(=O)O)nc3)c(C)c2)nc1 [Example 21]
> 50	0.018	> 50	>154			Cc1cc(OCC2(O)CCS(=O)(=O)CC2)cc(C)c1-c1ccc(F)c2c1CC[C@H]2Nc1ccc([C@H]2C[C@@H]2C(=O)O)nc1 [Example 38]
7	0.012	26	95			Cc1cc(-c2ccnn2C)cc(C)c1-c1ccc(F)c2c1CC[C@H]2Nc1ccc([C@H]2C[C@@H]2C(=O)O)nc1 [Example 19]
29	0.003	> 50			68 (≈ 141 µM)	Cc1cc(-c2nnn(C)n2)cc(C)c1-c1cccc2c1CC[C@H]2Nc1ccc([C@H]2C[C@@H]2C(=O)O)nc1 [Example 6, (1S,2S)-2-(5-{(R)-4-[2,6-Dimethyl-4-(2-methyl-2H-tetrazol-5-yl)-phenyl]-indan-1-ylamino}-pyridin-2-yl)-cyclopropanecarboxylic acid]
14	0.004	> 50	117			Cc1cc(-c2ccn(C)c(=O)c2)cc(C)c1-c1ccc(F)c2c1CC[C@H]2Nc1ccc([C@H]2C[C@@H]2C(=O)O)nc1 [Example 29]
41	0.019	> 50	119			Cc1cc(OCC2(O)CCOCC2)cc(C)c1-c1ccc(F)c2c1CC[C@H]2Nc1ccc([C@H]2C[C@@H]2C(=O)O)nc1 [Example 37]
5		10	< 1	0.008	< 1	Cc1cc(-c2nnn(C)n2)cc(C)c1-c1ccc(F)c2c1CC[C@H]2Oc1ccc([C@H]2C[C@@H]2C(=O)O)cc1 [Example 45 in WO 2013/178575, reference compound]
31	0.011	> 50	106			Cc1cc(OC2CCOCC2)cc(C)c1-c1ccc(F)c2c1CC[C@H]2Nc1ccc([C@H]2C[C@@H]2C(=O)O)nc1 [Example 35]
5		7				Cc1cccc(C)c1-c1ccc(F)c2c1CC[C@H]2Oc1ccc(C2CC2C(=O)O)cc1 (stereo partly drawn) [Example 33 in WO 2013/178575, reference compound]
9		10			< 1	Cc1c(C#N)cccc1-c1ccc(F)c2c1CC[C@H]2Oc1ccc([C@H]2C[C@@H]2C(=O)O)cc1 [Example 54 in WO 2013/178575, reference compound]
20	0.003	> 50				Cc1cc(-c2nnn(C)n2)cc(C)c1-c1ccc(F)c2c1CC[C@H]2Nc1ccc([C@H]2C[C@@H]2C(=O)O)nc1 [Example 30]
10		31			< 1	Cc1cc(C(=O)NCC(C)(C)O)cc(C)c1-c1ccc(F)c2c1CC[C@H]2Oc1ccc([C@H]2C[C@@H]2C(=O)O)cc1 [Example 15 in WO 2013/178575, reference compound]
	0.146					Cc1nnc(-c2ccc(-c3cccc4c3CC[C@H]4Nc3ccc([C@H]4C[C@@H]4C(=O)O)nc3)cc2)o1 [Example 10, (1S,2S)-2-(5-{(R)-4-[4-(5-Methyl-[1,3,4]oxadiazol-2-yl)-phenyl]-indan-1-ylamino}-pyridin-2-yl)-cyclopropanecarboxylic acid]

Structure (SMILES)	IC50 [1] [µM]	EC50 [2, 5] [µM]	IC50 [3] [µM]	Solubility at pH value 2.2 [4] [μg/mL]	EC50 [2, 6] [µM]	solubility at 24 h [4] [µg/mL]
Cc1cc(OCCC(C)(C)O)cc(C)c1-c1ccc(F)c2c1CC[C@H]2Nc1ccc(C2C[C@@H]2C(=O)O)nc1 (stereo partly drawn) [Example 1, trans-2-(5-{(R)-7-Fluoro-4-[4-(3-hydroxy-3-methyl-butoxy)-2,6-dimethyl-phenyl]-indan-1-ylamino}-pyridin-2-yl)-cyclopropanecarboxylic acid]		0.011				
Cc1cc(OCCC(C)(C)O)cc(C)c1-c1cccc2c1CC[C@H]2Nc1ccc([C@H]2C[C@@H]2C(=O)O)nc1 [Example 7, (1S,2S)-2-(5-{(R)-4-[4-(3-Hydroxy-3-methyl-butoxy)-2,6-dimethyl-phenyl]-indan-1-ylamino}-pyridin-2-yl)-cyclopropanecarboxylic acid]	> 50	0.005	> 50			84 (≈ 168 µM)
Cc1cc(C(N)=O)cc(C)c1-c1ccc(F)c2c1CC[C@H]2Nc1ccc([C@H]2C[C@@H]2C(=O)O)nc1 [Example 11]	> 50	0.03	> 50	>120		
Cc1cc(OCCC(C)(C)O)cc(C)c1-c1ccc(F)c2c1CC[C@H]2Nc1ccc([C@@H]2C[C@H]2C(=O)O)nc1 [Example 3, (1R,2R)-2-(5-{(R)-7-Fluoro-4-[4-(3-hydroxy-3-methyl-butoxy)-2,6-dimethyl-phenyl]-indan-1-ylamino}-pyridin-2-yl)-cyclopropanecarboxylic acid]		0.107				
